In ChEMBL document CHEMBL1201862, “PubChem BioAssay data set” (2004):
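Following 48 hours of exposure in 96-well plates, responses at five concentrations were used to interpolate endpoints linearly. Abbreviation: GI50, concentration required for 50% inhibition of growth.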 The source made the active and inactive calls. Rule as the data show it: active = GI50 up to about 1.1 µM and inactive = higher.

What was measured:
Experiment in all cases: NCI-60 cell line screen, 48 h
T47D = system: T47D
IGROV-1 = system: IGROV-1
OVCAR-8 = system: OVCAR-8
SK-OV-3 = system: SK-OV-3
DU-145 = system: DU-145
BT-549 = system: BT-549
OVCAR-4 = system: OVCAR-4
HL-60 = system: HL-60
MDA-MB-435 = system: MDA-MB-435
MOLT-4 = system: MOLT-4
NCI/ADR-RES = system: NCI/ADR-RES
NCI-H460 = system: NCI-H460
NCI-H522 = system: NCI-H522
SN12C = system: SN12C
ACHN = system: ACHN
SK-MEL-2 = system: SK-MEL-2
OVCAR-5 = system: OVCAR-5
SW-620 = system: SW-620
K562 = system: K562
KM12 = system: KM12
HT-29 = system: HT-29
CCRF-CEM = system: CCRF-CEM
EKVX = system: EKVX
MDA-MB-231 = system: MDA-MB-231
SF-539 = system: SF-539
U-251 = system: U-251
SF-268 = system: SF-268
HOP-62 = system: HOP-62
SNB-19 = system: SNB-19
HCT-116 = system: HCT-116
PC-3 = system: PC-3
UACC-257 = system: UACC-257
RXF 393 = system: RXF 393
TK-10 = system: TK-10
SNB-75 = system: SNB-75
Hs-578T = system: Hs-578T
M14 = system: M14
RPMI-8226 = system: RPMI-8226
786-0 = system: 786-0
HCT-15 = system: HCT-15
SF-295 = system: SF-295
OVCAR-3 = system: OVCAR-3
NCI-H23 = system: NCI-H23
CAKI-1 = system: CAKI-1
COLO 205 = system: COLO 205
SK-MEL-5 = system: SK-MEL-5
MCF7 = system: MCF7
HOP-92 = system: HOP-92
SK-MEL-28 = system: SK-MEL-28
Malme-3M = system: Malme-3M
UACC-62 = system: UACC-62
SR = system: SR
A549 = system: A549
LOX IMVI = system: LOX IMVI
NCI-H226 = system: NCI-H226
MDA-N = system: MDA-N
HCC 2998 = system: HCC 2998
UO-31 = system: UO-31

SMILES: Cc1nc2sc3ccccc3n2c(=O)c1/N=N/c1ccc(Cl)cc1
- GI50 (T47D): > 100 µM (inactive)
- GI50 (IGROV-1): > 100 µM (inactive)
- GI50 (OVCAR-8): > 100 µM (inactive)
- GI50 (SK-OV-3): > 100 µM (inactive)
- GI50 (DU-145): > 100 µM (inactive)
- GI50 (BT-549): > 100 µM (inactive)
- GI50 (OVCAR-4): > 100 µM (inactive)
- GI50 (HL-60): > 100 µM (inactive)
- GI50 (MDA-MB-435): > 100 µM (inactive)
- GI50 (MOLT-4): > 100 µM (inactive)
- GI50 (NCI/ADR-RES): > 100 µM (inactive)
- GI50 (NCI-H460): > 100 µM (inactive)
- GI50 (NCI-H522): > 100 µM (inactive)
- GI50 (SN12C): > 100 µM (inactive)
- GI50 (ACHN): > 100 µM (inactive)
- GI50 (SK-MEL-2): > 100 µM (inactive)
- GI50 (OVCAR-5): > 100 µM (inactive)
- GI50 (SW-620): > 100 µM (inactive)
- GI50 (K562): > 100 µM (inactive)
- GI50 (KM12): > 100 µM (inactive)
- GI50 (HT-29): > 100 µM (inactive)
- GI50 (CCRF-CEM): > 100 µM (inactive)
- GI50 (EKVX): > 100 µM (inactive)
- GI50 (MDA-MB-231): 83.9 µM (inactive)
- GI50 (SF-539): > 100 µM (inactive)
- GI50 (U-251): > 100 µM (inactive)
- GI50 (SF-268): > 100 µM (inactive)
- GI50 (HOP-62): > 100 µM (inactive)
- GI50 (SNB-19): > 100 µM (inactive)
- GI50 (HCT-116): > 100 µM (inactive)
- GI50 (PC-3): > 100 µM (inactive)
- GI50 (UACC-257): > 100 µM (inactive)
- GI50 (RXF 393): > 100 µM (inactive)
- GI50 (TK-10): > 100 µM (inactive)
- GI50 (SNB-75): > 100 µM (inactive)
- GI50 (Hs-578T): > 100 µM (inactive)
- GI50 (M14): > 100 µM (inactive)
- GI50 (RPMI-8226): > 100 µM (inactive)
- GI50 (786-0): > 100 µM (inactive)
- GI50 (HCT-15): > 100 µM
- GI50 (SF-295): > 100 µM (inactive)
- GI50 (OVCAR-3): > 100 µM (inactive)
- GI50 (NCI-H23): > 100 µM (inactive)
- GI50 (CAKI-1): > 100 µM (inactive)
- GI50 (COLO 205): > 100 µM (inactive)
- GI50 (SK-MEL-5): > 100 µM (inactive)
- GI50 (MCF7): > 100 µM (inactive)
- GI50 (HOP-92): > 100 µM (inactive)
- GI50 (SK-MEL-28): > 100 µM (inactive)
- GI50 (Malme-3M): > 100 µM (inactive)
- GI50 (UACC-62): > 100 µM (inactive)
- GI50 (SR): > 100 µM (inactive)
- GI50 (A549): > 100 µM (inactive)
- GI50 (LOX IMVI): > 100 µM (inactive)
- GI50 (NCI-H226): > 100 µM (inactive)
- GI50 (MDA-N): > 100 µM (inactive)

SMILES: N#Cc1nc(/C=C/c2nc(C#N)c(N)o2)oc1N
- GI50 (T47D): > 10 µM (inactive)
- GI50 (HCC 2998): > 10 µM (inactive)
- GI50 (IGROV-1): > 10 µM (inactive)
- GI50 (OVCAR-8): > 10 µM (inactive)
- GI50 (SK-OV-3): > 10 µM (inactive)
- GI50 (DU-145): > 10 µM (inactive)
- GI50 (BT-549): > 10 µM (inactive)
- GI50 (OVCAR-4): > 10 µM (inactive)
- GI50 (HL-60): > 10 µM (inactive)
- GI50 (MDA-MB-435): > 10 µM (inactive)
- GI50 (NCI/ADR-RES): > 10 µM (inactive)
- GI50 (NCI-H460): > 10 µM (inactive)
- GI50 (NCI-H522): > 10 µM (inactive)
- GI50 (SN12C): > 10 µM (inactive)
- GI50 (ACHN): > 10 µM (inactive)
- GI50 (SW-620): > 10 µM (inactive)
- GI50 (K562): > 10 µM (inactive)
- GI50 (KM12): > 10 µM (inactive)
- GI50 (HT-29): > 10 µM (inactive)
- GI50 (CCRF-CEM): > 10 µM (inactive)
- GI50 (EKVX): > 10 µM (inactive)
- GI50 (MDA-MB-231): > 10 µM (inactive)
- GI50 (SF-539): > 10 µM (inactive)
- GI50 (SF-268): > 10 µM (inactive)
- GI50 (HOP-62): > 10 µM (inactive)
- GI50 (SNB-19): > 10 µM (inactive)
- GI50 (HCT-116): > 10 µM (inactive)
- GI50 (UO-31): > 10 µM (inactive)
- GI50 (PC-3): > 10 µM (inactive)
- GI50 (UACC-257): > 10 µM (inactive)
- GI50 (RXF 393): > 10 µM (inactive)
- GI50 (TK-10): > 10 µM (inactive)
- GI50 (SNB-75): > 10 µM (inactive)
- GI50 (Hs-578T): > 10 µM (inactive)
- GI50 (M14): > 10 µM (inactive)
- GI50 (RPMI-8226): > 10 µM (inactive)
- GI50 (786-0): > 10 µM (inactive)
- GI50 (HCT-15): > 10 µM
- GI50 (SF-295): > 10 µM (inactive)
- GI50 (NCI-H23): > 10 µM (inactive)
- GI50 (CAKI-1): > 10 µM (inactive)
- GI50 (COLO 205): > 10 µM (inactive)
- GI50 (SK-MEL-5): > 10 µM (inactive)
- GI50 (MCF7): > 10 µM (inactive)
- GI50 (HOP-92): > 10 µM (inactive)
- GI50 (SK-MEL-28): > 10 µM (inactive)
- GI50 (Malme-3M): > 10 µM (inactive)
- GI50 (UACC-62): > 10 µM (inactive)
- GI50 (SR): > 10 µM (inactive)
- GI50 (A549): > 10 µM (inactive)
- GI50 (LOX IMVI): > 10 µM (inactive)
- GI50 (NCI-H226): > 10 µM (inactive)
- GI50 (MDA-N): > 10 µM (inactive)

SMILES: CC1=C(C(=O)OCCc2ccc([N+](=O)[O-])cc2)C(c2ccccc2[N+](=O)[O-])C(C(=O)OC(C)C)=C(C)N1 (stereo unspecified)
- GI50 (T47D): 3.9 µM (inactive)
- GI50 (HCC 2998): 7.43 µM (inactive)
- GI50 (IGROV-1): 7.05 µM (inactive)
- GI50 (OVCAR-8): 3.66 µM (inactive)
- GI50 (SK-OV-3): 5.81 µM (inactive)
- GI50 (DU-145): 9.04 µM (inactive)
- GI50 (BT-549): 2.4 µM (inactive)
- GI50 (OVCAR-4): 37.9 µM (inactive)
- GI50 (HL-60): 2.2 µM (inactive)
- GI50 (MDA-MB-435): 5 µM (inactive)
- GI50 (MOLT-4): 1.99 µM (inactive)
- GI50 (NCI/ADR-RES): 3.19 µM (inactive)
- GI50 (NCI-H460): 2.6 µM (inactive)
- GI50 (NCI-H522): 2.18 µM (inactive)
- GI50 (SN12C): 6.87 µM (inactive)
- GI50 (ACHN): 3.4 µM (inactive)
- GI50 (SK-MEL-2): 3.86 µM (inactive)
- GI50 (OVCAR-5): 31.1 µM (inactive)
- GI50 (SW-620): 6.89 µM (inactive)
- GI50 (K562): 3.39 µM (inactive)
- GI50 (KM12): 3.48 µM (inactive)
- GI50 (HT-29): 5.07 µM (inactive)
- GI50 (CCRF-CEM): 2.36 µM (inactive)
- GI50 (EKVX): 2.36 µM (inactive)
- GI50 (MDA-MB-231): 4.91 µM (inactive)
- GI50 (SF-539): 4.15 µM (inactive)
- GI50 (U-251): 4.73 µM (inactive)
- GI50 (SF-268): 5.55 µM (inactive)
- GI50 (HOP-62): 8.67 µM (inactive)
- GI50 (SNB-19): 5.61 µM (inactive)
- GI50 (HCT-116): 2.75 µM (inactive)
- GI50 (UO-31): 4.2 µM (inactive)
- GI50 (PC-3): 1.49 µM (inactive)
- GI50 (UACC-257): 4.04 µM (inactive)
- GI50 (RXF 393): 3.22 µM (inactive)
- GI50 (TK-10): 5.87 µM (inactive)
- GI50 (SNB-75): 4.24 µM (inactive)
- GI50 (Hs-578T): 4.38 µM (inactive)
- GI50 (M14): 4.05 µM (inactive)
- GI50 (RPMI-8226): 2.93 µM (inactive)
- GI50 (786-0): 3.08 µM (inactive)
- GI50 (HCT-15): 4.21 µM
- GI50 (SF-295): 2.74 µM (inactive)
- GI50 (OVCAR-3): 5.08 µM (inactive)
- GI50 (NCI-H23): 3.97 µM (inactive)
- GI50 (CAKI-1): 3.4 µM (inactive)
- GI50 (COLO 205): 6.01 µM (inactive)
- GI50 (SK-MEL-5): 2.24 µM (inactive)
- GI50 (MCF7): 3.78 µM (inactive)
- GI50 (SK-MEL-28): 7.57 µM (inactive)
- GI50 (Malme-3M): 7.19 µM (inactive)
- GI50 (UACC-62): 4.29 µM (inactive)
- GI50 (SR): 2.94 µM (inactive)
- GI50 (A549): 2.96 µM (inactive)
- GI50 (LOX IMVI): 4.14 µM (inactive)
- GI50 (NCI-H226): 5.45 µM (inactive)
- GI50 (MDA-N): 4.51 µM (inactive)
